What was measured:
[1] = target: T1, TamAA9A-CD (Talaromyces amestolkiae, UniProt A0A364LE17); test: spectrophotometric oxidation to coerulignone at […] nm, Michaelis-Menten fit; format: biochemical; settings: 2 mM H2O2 as co-substrate; copper-saturated enzyme; 100 mM sodium phosphate pH 6; substrate range 1.25-100 mM
T1 construct: gene BHQ10_010049; native signal peptide (removed), no tag mentioned; secreted from Pichia pastoris X-33; theoretical 24 kDa, about 30 kDa glycosylated; copper-saturated; mature N-terminus HGYVQN from primer

[2] = target: T2, TamAA9A-CBM (Talaromyces amestolkiae, UniProt A0A364LE17); test: as above; format: biochemical; settings: 2 mM H2O2 as co-substrate; copper-saturated enzyme; 100 mM sodium phosphate pH 6; substrate range 1.25-100 mM; printed kcat/Km (0.003) does not match printed kcat and Km
T2 construct: gene BHQ10_010049; native signal peptide (removed); secreted from Pichia pastoris X-33; theoretical 34 kDa, 75-100 kDa glycosylated; copper-saturated; with Beta-glucosidase BGL-2 (CBM1 domain only)
T2 sequence (A0A364LE17 entry or part of it): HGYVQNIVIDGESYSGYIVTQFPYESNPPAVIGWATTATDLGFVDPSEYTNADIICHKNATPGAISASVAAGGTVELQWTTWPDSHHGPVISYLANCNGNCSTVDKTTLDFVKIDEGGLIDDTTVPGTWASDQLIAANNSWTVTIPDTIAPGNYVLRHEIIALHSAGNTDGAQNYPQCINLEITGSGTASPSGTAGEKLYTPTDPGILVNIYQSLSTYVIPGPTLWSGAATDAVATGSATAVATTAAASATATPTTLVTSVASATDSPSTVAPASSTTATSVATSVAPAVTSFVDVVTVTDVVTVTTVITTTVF

T1 sequence (A0A364LE17 entry or part of it): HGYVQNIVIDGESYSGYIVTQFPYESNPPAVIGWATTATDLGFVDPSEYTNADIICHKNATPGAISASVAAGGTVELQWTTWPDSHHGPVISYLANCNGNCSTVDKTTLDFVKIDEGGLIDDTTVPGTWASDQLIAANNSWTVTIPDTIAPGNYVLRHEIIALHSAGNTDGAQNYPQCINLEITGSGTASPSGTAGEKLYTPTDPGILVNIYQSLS

`COc1cccc(OC)c1O` [2,6-DMP, 2,6-dimethoxyphenol] showed a Km [1] of 87.7 ± 0.7 mM and a Km [2] of 85.68 ± 0.7 mM.
